This passage reports binding and Kd results from article PMC9953353 (2023).

Assay [1] has as its system Thi-5R-18 (DNA, aptamer) ATAGGAGTCACGACGACCAGAAGGGCAAATAGCATAATGGATCACATTAGATGAGCCCAGGCTATGTGCGTCTACCTCTTGACTAAT
Description: AuNP colorimetric aptasensor. Particulars: NaCl 0.25 M added for aggregation; 10^−7 M tested; response below one tenth of thiamethoxam at 10^−8 M.

The test system is the same in assay [2]. The experiment in a line: isothermal titration calorimetry. Particulars: 5 mM KCl, 100 mM NaCl, 1 mM MgCl2; 50 mM Tris-HCl, pH 7.4, 25 °C; 25 μM aptamer, 1 mM thiamethoxam. (In general: ITC needs no label: the signal is the heat of the interaction.)
Assay [3] relates to truncated Thi-5R-18 (DNA, aptamer) GAAGGGCAAATAGCATAATGGATCACATTAGATGAGCCCAGGCTATGTGCG
Description: isothermal titration calorimetry. Particulars: 5 mM KCl, 100 mM NaCl, 1 mM MgCl2; 50 mM Tris-HCl, pH 7.4, 25 °C; Kd could not be fitted; thiamethoxam 1 mM.

As to `CN/C(=N\[N+](=O)[O-])NCc1cnc(Cl)s1`, the binding entry in assay [1] is “weak”.
A word on the Kd: it is the constant that tells how readily two partners part at equilibrium. A higher Kd goes with weaker binding. Regarding `CN1COCN(Cc2cnc(Cl)s2)C1=N[N+](=O)[O-]`, in assay [2], the Kd came out at 49.35 µM. Besides, the binding entry in assay [3] was “no”.
Turning to `O=[N+]([O-])N=C1NCCN1Cc1ccc(Cl)nc1`, the binding result in assay [1] is “weak”.
Still for that read-out and setting: the entry for `CNC(=N[N+](=O)[O-])NCC1CCOC1` (stereo not drawn) is “weak”; for `O=C(O)CNCP(=O)(O)O` it is “weak”.
